Reference: patent publication US9156790B2, “Anticancer P21-activated kinase inhibitors” (Ohio State Innovation Foundation, priority 2013, dated 2015)
Entries after “also recorded” stand apart in the source; their conditions may differ.

Tests used:
TPC1 cells = assay: Boyden chamber migration assay, TPC1; assay type: cell-based, Human; details: 5 μM, 24 hours, P<0.05 versus DMSO
Experimental: Cells were grown in media containing 10% FBS. After 24 hours, the medium was aspirated, and media containing 1% FBS was added for 24 hours. The cells were trypsinized for 2 to 5 minutes, washed, and resuspended in media containing 1% FBS. The cell concentration was calculated by hemocytometer. Four hundred μl 1% FBS medium was added into 24-well plates, and a Boyden chamber (8 μm pore) was inserted into each well. Cells were added to each insert, and were allowed to attach in an incubator at 37° C. at 5% CO2 for 2 hours. The cells were then exposed to various concentrations of drugs or control diluent for 3 hours. The inserts were switched to a new well containing media containing 10% FBS, and the chamber was incubated for 12 or 24 hours depending on the migration rate of the cell line. The cells on and under the Boyden chamber membrane were fixed with 3.7% formaldehyde containing 0.05% crystal violet for 15 min after washing cells with PBS. The chambers were washed with distilled water. […] The Q-tips containing the scraped cells and the Boyden chamber containing the non-migrated cells were separately incubated in 80% methanol, shaken at 500 g for 30 minutes, and the extracted dye was measured at 570 nm. Migration was quantified as the ratio of the migrated cells over the total cells (non-migrated plus […]). […]

CHK1 = CHK1 (Homo sapiens, UniProt O14757); assay: Kinase profiling panel: CHK1; assay type: biochemical; details: 5 μM compound; average of triplicate
Experimental: (§1) To further probe the selectivity of the compounds 4 and 15, they were subjected for kinase profiling service for screening against a panel of other kinases selected based on the kinase tree at 5 μM concentration, at or above the IC50 for the two compounds versus PAK in both in vitro and cell-based assays. […] PAK1 was not available for testing using this system thus it was not possible to compare directly in this assay system.

MEK1 = MEK1 (Homo sapiens, UniProt Q02750); assay: Kinase profiling panel: MEK1; assay type: biochemical; details: 5 μM compound; average of triplicate
Experimental: as §1

PAK3 = PAK3 (Homo sapiens, UniProt O75914); assay: Kinase profiling panel: PAK3; assay type: biochemical; details: 5 μM compound; average of triplicate
Experimental: as §1

p70S6K = p70S6K (Homo sapiens, UniProt P23443); assay: Kinase profiling panel: p70S6K; assay type: biochemical; details: 5 μM compound; for % activity vs. DMSO, p70S6K: average of triplicate
Experimental: as §1

PKA = PKA (Homo sapiens, UniProt P17612); assay: Kinase profiling panel: PKA; assay type: biochemical; details: 5 μM compound; average of triplicate
Experimental: as §1

CaMKI = CaMKI (Homo sapiens, UniProt Q14012); assay: Kinase profiling panel: CaMKI; assay type: biochemical; details: 5 μM compound; average of triplicate
Experimental: as §1

Recombinant active PAK 1 = target: T1, Recombinant active PAK 1 (Homo sapiens, UniProt Q13153); assay: In vitro PAK1 kinase assay (MBP substrate, 32P-ATP); assay type: biochemical; details: for Inhibition of PAK1 kinase activity in initial screen: 7.5 μM inhibitor, 2.5 μM ATP, myelin basic protein substrate (FIG. 2A); for ATP competition for PAK1: ATP 5-40 μM, Lineweaver-Burk analysis (FIG. 2C); for Relative PAK1 inhibitory potency (comparison in words) / IC50: in vitro kinase assay; for Relative PAK1 inhibitory potency (comparison in words): comparison between compounds / with OSU-03012; for IC50: read-out: IC50 versus PAK, in vitro (bound implied by chosen test concentration)
T1 construct: purchased Calbiochem
Experimental: Recombinant active PAK 1 (Calbiochem) was incubated with selected derivatives or 0.1% DMSO in the presence or absence of MBP (Sigma) in a 1× kinase buffer (Cell Signaling). The addition of [γ-32P]-ATP (2.5 μCi/reaction) (Perkin Elmer) started the reaction, which was incubated at 30° C. for 30 minutes. The reaction was terminated by the addition of EDTA. Results were obtained after visualization of ^32P-labeled MBP after separation on 12% polyacrylamide gels and autoradiography. For the Lineweaver-Burk plot analysis, the ratio of radioactive ATP to nonradioactive ATP was not altered. The PAK1 kinase activities are the means of three independent experiments quantified using P81 phosphocellulose paper by a scintillation counter after three washes with 0.75% phosphoric acid.
Screening of OSU-03012 Derivatives to Identify PAK1 Inhibitors. The 17 derivatives along with OSU-03012, each at 7.5 μM, were screened for their ability to inhibit PAK1 activity by in vitro PAK1 kinase assay. The dose was chosen (above the IC50 of OSU-03012) to allow OSU-03012 to serve as a robust positive control. The PAK1 kinase assay was performed using recombinant active PAK1 with myelin basic protein as substrate in the presence of 2.5 μM ATP and 7.5 μM of respective inhibitors.
To further investigate these six compounds, dose-response studies on PAK1 activity were performed by using PAK1 kinase assay. […] We next questioned whether compounds 4 or 15 inhibited PAK1 in an ATP competitive manner as their parent compound OSU-03012.

p70S6K, sequence (P23443 whole entry): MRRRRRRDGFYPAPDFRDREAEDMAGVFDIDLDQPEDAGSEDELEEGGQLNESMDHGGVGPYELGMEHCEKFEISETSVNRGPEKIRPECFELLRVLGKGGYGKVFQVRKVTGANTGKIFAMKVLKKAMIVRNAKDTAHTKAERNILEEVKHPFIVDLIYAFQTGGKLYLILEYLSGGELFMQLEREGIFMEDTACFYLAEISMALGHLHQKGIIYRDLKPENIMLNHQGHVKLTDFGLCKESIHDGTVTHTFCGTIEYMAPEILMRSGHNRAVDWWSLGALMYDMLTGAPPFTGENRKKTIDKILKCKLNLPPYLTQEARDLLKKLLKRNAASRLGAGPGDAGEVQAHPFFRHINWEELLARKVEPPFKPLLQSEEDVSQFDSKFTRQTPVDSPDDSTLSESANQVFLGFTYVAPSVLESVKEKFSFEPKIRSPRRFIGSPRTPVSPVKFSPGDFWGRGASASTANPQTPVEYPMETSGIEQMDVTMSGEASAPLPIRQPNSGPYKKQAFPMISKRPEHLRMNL
T1 sequence (Q13153 whole entry): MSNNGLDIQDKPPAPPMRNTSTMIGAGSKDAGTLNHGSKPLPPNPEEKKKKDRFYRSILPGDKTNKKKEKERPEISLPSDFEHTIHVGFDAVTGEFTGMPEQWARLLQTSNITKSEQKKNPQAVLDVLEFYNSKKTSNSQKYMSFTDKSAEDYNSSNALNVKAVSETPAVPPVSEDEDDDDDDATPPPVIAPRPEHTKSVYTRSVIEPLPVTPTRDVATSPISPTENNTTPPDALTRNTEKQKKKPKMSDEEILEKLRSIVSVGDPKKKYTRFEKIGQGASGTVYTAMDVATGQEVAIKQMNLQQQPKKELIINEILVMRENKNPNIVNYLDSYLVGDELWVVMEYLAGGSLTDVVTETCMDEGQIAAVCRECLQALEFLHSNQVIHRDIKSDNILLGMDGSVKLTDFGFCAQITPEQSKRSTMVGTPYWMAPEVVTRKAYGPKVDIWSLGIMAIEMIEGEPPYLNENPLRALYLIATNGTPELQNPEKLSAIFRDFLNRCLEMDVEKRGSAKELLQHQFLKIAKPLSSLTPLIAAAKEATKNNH
PAK3, sequence (O75914 whole entry, species assumed): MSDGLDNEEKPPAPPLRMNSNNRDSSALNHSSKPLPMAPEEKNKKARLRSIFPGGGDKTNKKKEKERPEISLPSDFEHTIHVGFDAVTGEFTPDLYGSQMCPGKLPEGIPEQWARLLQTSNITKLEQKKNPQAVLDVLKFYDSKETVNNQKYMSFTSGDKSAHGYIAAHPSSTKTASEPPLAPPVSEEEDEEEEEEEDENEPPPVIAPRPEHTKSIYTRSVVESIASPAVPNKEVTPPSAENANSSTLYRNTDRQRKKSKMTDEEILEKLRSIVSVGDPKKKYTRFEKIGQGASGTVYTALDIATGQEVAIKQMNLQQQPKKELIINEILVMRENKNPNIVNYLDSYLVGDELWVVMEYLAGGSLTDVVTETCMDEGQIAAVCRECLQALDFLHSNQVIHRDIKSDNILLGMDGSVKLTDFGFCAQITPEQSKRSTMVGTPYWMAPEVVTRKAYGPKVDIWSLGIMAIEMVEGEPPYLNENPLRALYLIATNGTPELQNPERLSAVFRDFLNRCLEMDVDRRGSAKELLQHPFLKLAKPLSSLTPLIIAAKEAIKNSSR
MEK1, sequence (Q02750 whole entry, species assumed): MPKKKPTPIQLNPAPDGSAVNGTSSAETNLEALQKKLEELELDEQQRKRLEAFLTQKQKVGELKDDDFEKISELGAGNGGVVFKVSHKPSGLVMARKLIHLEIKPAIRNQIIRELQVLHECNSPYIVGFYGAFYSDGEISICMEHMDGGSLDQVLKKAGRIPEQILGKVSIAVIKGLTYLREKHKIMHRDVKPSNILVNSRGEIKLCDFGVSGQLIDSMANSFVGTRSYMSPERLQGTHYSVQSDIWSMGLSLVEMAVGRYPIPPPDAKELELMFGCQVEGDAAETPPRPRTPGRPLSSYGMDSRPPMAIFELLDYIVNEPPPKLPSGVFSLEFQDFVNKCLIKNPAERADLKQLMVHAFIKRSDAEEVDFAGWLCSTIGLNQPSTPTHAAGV
CaMKI, sequence (Q14012 whole entry, species assumed): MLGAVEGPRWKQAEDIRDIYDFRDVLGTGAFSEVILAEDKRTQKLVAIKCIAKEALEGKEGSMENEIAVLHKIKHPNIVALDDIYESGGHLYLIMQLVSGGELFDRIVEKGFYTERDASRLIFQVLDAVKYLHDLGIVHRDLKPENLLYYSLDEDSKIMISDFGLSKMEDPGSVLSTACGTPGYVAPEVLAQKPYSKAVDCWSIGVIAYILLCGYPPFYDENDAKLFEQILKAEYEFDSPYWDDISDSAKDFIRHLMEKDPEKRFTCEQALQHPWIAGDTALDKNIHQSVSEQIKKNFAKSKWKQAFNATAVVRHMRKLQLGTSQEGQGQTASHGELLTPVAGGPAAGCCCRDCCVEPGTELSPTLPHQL
CHK1, sequence (O14757 whole entry, species assumed): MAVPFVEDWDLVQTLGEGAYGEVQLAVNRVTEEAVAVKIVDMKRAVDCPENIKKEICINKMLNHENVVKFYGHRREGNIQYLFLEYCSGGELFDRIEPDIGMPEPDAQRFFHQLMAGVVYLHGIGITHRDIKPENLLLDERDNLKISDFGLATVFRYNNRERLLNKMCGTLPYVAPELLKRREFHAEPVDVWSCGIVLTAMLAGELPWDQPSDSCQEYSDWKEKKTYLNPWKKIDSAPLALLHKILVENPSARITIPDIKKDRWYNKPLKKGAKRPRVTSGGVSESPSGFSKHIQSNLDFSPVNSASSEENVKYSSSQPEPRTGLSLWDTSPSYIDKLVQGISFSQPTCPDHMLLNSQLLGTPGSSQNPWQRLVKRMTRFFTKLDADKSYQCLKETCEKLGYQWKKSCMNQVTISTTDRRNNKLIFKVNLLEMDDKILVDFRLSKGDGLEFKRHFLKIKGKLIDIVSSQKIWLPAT

| SMILES | Migration of TPC1 cells (TPC1 cells) | % activity vs. DMSO, CHK1 (CHK1) | % activity vs. DMSO, MEK1 (MEK1) | % activity vs. DMSO, PAK3 (PAK3) | inhibition at 5 µM (p70S6K) | % activity vs. DMSO, p70S6K (p70S6K) | % activity vs. DMSO, PKA (PKA) | % activity vs. DMSO, CaMKI (CaMKI) | Inhibition of PAK1 kinase activity in initial screen (Recombinant active PAK 1) | ATP competition for PAK1 (Recombinant active PAK 1) | Relative PAK1 inhibitory potency (comparison in words) (Recombinant active PAK 1) | IC50 (Recombinant active PAK 1) |
| --- | --- | --- | --- | --- | --- | --- | --- | --- | --- | --- | --- | --- |
| NCCC(=O)Nc1ccc(-n2nc(C(F)(F)F)cc2-c2ccc3ccc4ccccc4c3c2)cc1 [Compound 4, 3-amino-N-(4-(5-(phenanthren-3-yl)-3-(trifluoromethyl)-1H-pyrazol-1-yl)phenyl)-propanamide] | decreased cell motility; also recorded: inhibited migration | 82% | 106% | 211% | > 50% | 28% | 110% | 65% | inhibited PAK1 kinase activity | competed with ATP binding to PAK1 | comparable PAK1 inhibitory activity to OSU-03012; also recorded: more potent than the other compounds | ≤ 5 µM |
| CC(C)NC(=O)c1cc(-c2ccc3ccc4ccccc4c3c2)n(-c2ccc(NC(=O)CN)cc2)n1 [Compound 15, 1-(4-(2-Aminoacetamido)phenyl)-N-isopropyl-5-(phenanthren-3-yl)-1H-pyrazole-3-carboxamide] | decreased cell motility; also recorded: inhibited migration | 89% | 101% | 99% | > 50% | 38% | 119% | 68% | inhibited PAK1 kinase activity | competed with ATP binding to PAK1 | relative enhancement in activity; also recorded: comparable PAK1 inhibitory activity to OSU-03012; also recorded: more potent than the other compounds | ≤ 5 µM |
